Consider 4 compounds from patent US4021564A, “Neuroleptic piperidine compounds” (AB Ferrosan, priority 1975, dated 1977).

The test system of one data set is rats. The experiment in a line: Inhibition of Conditioned Avoidance Response in rats. The settings on record: Rattus norvegicus, sc, 1.5 hrs. The class given is in vivo. An excerpt: (b) Inhibition of conditioned behavior in rats. These tests have been described, and the importance of coordinating the compounds with these tests and the activities shown thereby is described in detail in the following literature: (b) Inhibition of Conditioned Avoidance Response "Neuroleptics characteristically interrupt the response to the warning stimulus (avoidance) without at the same time interrupting the response to the noxious stimulus (escape) which follows it." An introduction to Psycho-Pharmacology, Eds. Rech and Moore, New York, p. 264 (1971); Courvoisier, S., et al., in Arch. Int. Pharmacodyn. 92, 305 (1953); Jacobsen, E., in Psychotrophic Drugs, […], Amsterdam, p. 119 (1957). Jacobsen and Sonne, in Acta Pharmacol. et Toxicol. 11, pp. 135-147 (1955).

Another data set can be described thus: Acute Toxicity in Mice. Particulars: mouse, in vivo.
The test system of a further data set is mice. The experiment in a line: Inhibition of Exploratory Behavior (Climbing) in mice. It counts as in vivo. Particulars: Mus musculus, sc, 1 hr. An excerpt:
(a) Inhibition of climbing in mice (inhibition of exploratory behavior). These tests have been described, and the importance of coordinating the compounds with these tests and the activities shown thereby is described in detail in the following literature: (a) Inhibition of Exploratory Behavior (Climbing) van Rossum, J.M., et al., in The Neuroleptics, Modern Problems of Pharmaco-[…], Vol. 5, […]., in Arch. Int. Pharmacodyn 126, 238 (1960). Sandberg, S., in Arzneimittelforschung 9, 203 (1958).

Bounds are passed on as bounds.

With `Cc1ccc(C(=O)C2(O)CCN(CCCC(=O)c3ccc(F)cc3)CC2)cc1` [CH3, 1-[3-(p-fluorobenzoyl)propyl]-4-(p-methylbenzoyl)-4-hydroxypiperidine], the values for the median effective dose (ED50) in the data set with rats and in the data set with mice were 0.32 mg/kg and 0.8 mg/kg, respectively. For the same compound, the LD50 at 48 h in the data set “Acute Toxicity in Mice” (po) and in the data set “Acute Toxicity in Mice” (sc) was > 1000 mg/kg in each case.
With `O=C(CCCN1CCC(O)(C(=O)c2ccc(Cl)cc2)CC1)c1ccc(F)cc1` [Cl, 1-[3-(p-fluorobenzoyl)propyl]-4-(p-chlorobenzoyl)-4-hydroxypiperidine], the figures for the median effective dose (ED50) in the data set on rats and in the data set on mice were 0.37 mg/kg and 0.95 mg/kg, respectively. Further, the LD50 at 48 h in the data set “Acute Toxicity in Mice” (po) is 630 mg/kg; in “Acute Toxicity in Mice” (sc) it was > 1000 mg/kg.
As for `Cl.O=C(CCCN1CCC(O)(C(=O)c2ccc(F)cc2)CC1)c1ccc(F)cc1` [F, 1-[3-(p-fluorobenzoyl)propyl]-4-(p-fluorobenzoyl)-4-hydroxypiperidine hydrochloride], the results for the ED50 with rats and in the data set with mice were 0.13 mg/kg and 0.19 mg/kg, respectively. The LD50 at 48 h in the data set “Acute Toxicity in Mice” (po) was 500 mg/kg; in “Acute Toxicity in Mice” (sc), > 1000 mg/kg.
Taken in the same sequence, the figures for `COc1ccc(C(=O)C2(O)CCN(CCCC(=O)c3ccc(F)cc3)CC2)cc1` [OCH3, 1-[3-(p-fluorobenzoyl)propyl]-4-(p-methoxybenzoyl)-4-hydroxypiperidine] were 0.24 mg/kg, 1 mg/kg, 890 mg/kg and > 1000 mg/kg.
